Data from patent publication US11419869B2, “Dosage forms and regimens for amino acid compounds” (Pliant Therapeutics, Inc., priority 2019, dated 2022).

Molecular target: recombinant human integrin αvβ6 (Homo sapiens (Human), UniProt P06756+P18564)
Assay: Solid Phase Integrin αvβ6 Binding Assay (Examples B1, B2)
Settings: TGFβ1 LAP ligand, values given in four ranges, read-out: αvβ6 Inhibition IC50 (nM)-range
Description: (§1) Microplates were coated with recombinant human integrin αvβ6 (2 μg/mL) in PBS (100 μL/well 25° C., overnight). The coating solution was removed, washed with wash buffer (0.05% Tween 20; 0.5 mM MnCl2; in 1×TBS). The plate was blocked with 200 μL/well of Block Buffer (1% BSA; 5% sucrose; 0.5 mM MnCl2; in 1×TBS) at 37° C. for 2 h. Dilutions of testing compounds and recombinant TGFβ1 LAP (0.67 μg/mL) in binding buffer (0.05% BSA; 2.5% sucrose; 0.5 mM MnCl2; in 1×TBS) were added. The plate was incubated for 2 hours at 25° C., washed, and incubated for 1 hour with Biotin-Anti-hLAP. Bound antibody was detected by peroxidase-conjugated streptavidin. The IC50 values for testing compounds were calculated by four-parameter logistic regression.
The compounds tested were compound samples prepared according to procedures described in the Synthetic Examples section, with the stereochemical purity as indicated in the Examples.
as §1, with “A third series of exemplary compounds was selected for testing in the solid phase integrin αvβ6 binding assay. The compounds tested were compound samples prepared according to procedures described in the Synthetic Examples section, with the stereochemical purity as indicated in the Examples. As in Example B1, microplates were coated” for “Microplates were coated”, “calculated by a four-parameter logistic” for “calculated by four-parameter logistic”

Chain of recombinant human integrin αvβ6 (P06756 31-992): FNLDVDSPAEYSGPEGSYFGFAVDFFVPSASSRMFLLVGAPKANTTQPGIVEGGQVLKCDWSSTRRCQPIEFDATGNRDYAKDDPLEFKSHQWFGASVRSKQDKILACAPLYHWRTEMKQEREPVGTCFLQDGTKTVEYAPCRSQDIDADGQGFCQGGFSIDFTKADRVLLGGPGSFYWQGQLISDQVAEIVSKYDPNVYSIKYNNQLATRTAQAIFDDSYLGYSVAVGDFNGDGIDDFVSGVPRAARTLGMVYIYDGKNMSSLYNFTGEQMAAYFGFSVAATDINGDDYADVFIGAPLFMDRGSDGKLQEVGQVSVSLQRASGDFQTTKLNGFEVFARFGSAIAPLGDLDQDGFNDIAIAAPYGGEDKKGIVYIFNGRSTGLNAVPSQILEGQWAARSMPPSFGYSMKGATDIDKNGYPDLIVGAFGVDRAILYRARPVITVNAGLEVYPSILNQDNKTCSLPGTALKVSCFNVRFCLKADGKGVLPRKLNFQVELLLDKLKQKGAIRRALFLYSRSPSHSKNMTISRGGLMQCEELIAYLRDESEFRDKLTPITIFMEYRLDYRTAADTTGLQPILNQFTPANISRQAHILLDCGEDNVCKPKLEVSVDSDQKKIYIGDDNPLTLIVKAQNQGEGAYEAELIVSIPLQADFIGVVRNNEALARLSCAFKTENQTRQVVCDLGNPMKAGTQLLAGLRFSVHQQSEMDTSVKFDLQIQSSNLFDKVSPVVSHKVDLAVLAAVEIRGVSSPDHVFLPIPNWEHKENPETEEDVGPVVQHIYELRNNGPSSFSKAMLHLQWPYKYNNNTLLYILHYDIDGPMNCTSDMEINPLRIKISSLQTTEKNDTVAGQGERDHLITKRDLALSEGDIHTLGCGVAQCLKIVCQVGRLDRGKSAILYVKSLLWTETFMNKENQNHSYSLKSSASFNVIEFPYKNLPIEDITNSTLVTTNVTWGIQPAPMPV
Chain of recombinant human integrin αvβ6 (P18564 22-707): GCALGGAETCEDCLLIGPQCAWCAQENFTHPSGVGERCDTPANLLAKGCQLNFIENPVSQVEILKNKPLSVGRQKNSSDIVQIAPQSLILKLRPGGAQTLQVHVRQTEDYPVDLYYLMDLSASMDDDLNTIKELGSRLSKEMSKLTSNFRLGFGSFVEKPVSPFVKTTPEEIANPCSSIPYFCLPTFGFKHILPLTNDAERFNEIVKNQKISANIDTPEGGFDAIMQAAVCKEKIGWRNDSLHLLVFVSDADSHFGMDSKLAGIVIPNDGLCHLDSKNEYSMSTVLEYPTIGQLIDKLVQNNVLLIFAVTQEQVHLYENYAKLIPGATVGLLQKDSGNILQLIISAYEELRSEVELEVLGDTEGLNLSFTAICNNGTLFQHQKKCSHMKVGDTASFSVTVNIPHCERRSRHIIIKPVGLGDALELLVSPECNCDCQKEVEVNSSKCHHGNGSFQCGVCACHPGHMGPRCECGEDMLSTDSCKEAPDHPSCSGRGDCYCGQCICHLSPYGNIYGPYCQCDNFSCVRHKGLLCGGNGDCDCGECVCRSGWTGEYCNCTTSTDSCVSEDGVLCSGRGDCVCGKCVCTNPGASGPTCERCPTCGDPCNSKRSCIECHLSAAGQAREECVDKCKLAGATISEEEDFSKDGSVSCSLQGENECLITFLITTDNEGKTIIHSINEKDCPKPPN

SMILES	IC50 [nM]
COCCN(CCCCc1ccc2c(n1)NCCC2)CC[C@H](Nc1nc(C)nc2cc(F)ccc12)C(=O)O [Compound 12, (S)-2-((7-fluoro-2-methylquinazolin-4-yl)amino)-4-((2-methoxyethyl) (4-(5,6,7,8-tetrahydro-1,8-naphthyridin-2-yl)butyl)amino) butanoic acid]	< 50
CN(C)C(=O)CN(CCCCc1ccc2c(n1)NCCC2)CC[C@H](Nc1ncnc2ccccc12)C(=O)O [Compound 64, (S)-4-((2-(dimethylamino)-2-oxoethyl) (4-(5,6,7,8-tetrahydro-1,8-naphthyridin-2-yl)butyl)amino)-2-(quinazolin-4-ylamino) butanoic acid]	< 50
COCCN(CCCCc1ccc2c(n1)NCCC2)CC[C@H](Nc1nc(C)nc2ccccc12)C(=O)O [Compound 10, (S)-4-((2-methoxyethyl) (4-(5,6,7,8-tetrahydro-1,8-naphthyridin-2-yl)butyl)amino)-2-((2-methylquinazolin-4-yl)amino) butanoic acid]	< 50
COCCN(CCCCc1ccc2c(n1)NCCC2)CC[C@H](Nc1cc(C(F)F)ncn1)C(=O)O [Compound 23, (S)-2-((6-(difluoromethyl)pyrimidin-4-yl)amino)-4-((2-methoxyethyl) (4-(5,6,7,8-tetrahydro-1,8-naphthyridin-2-yl)butyl)amino) butanoic acid]	< 50
O=C(O)[C@H](CCN(CCCCc1ccc2c(n1)NCCC2)CCC(F)F)Nc1ncnc2ccccc12 [Compound 29, (S)-4-((3,3-difluoropropyl) (4-(5,6,7,8-tetrahydro-1,8-naphthyridin-2-yl)butyl)amino)-2-(quinazolin-4-ylamino) butanoic acid]	< 50
O=C(O)[C@H](CCN(CCCCc1ccc2c(n1)NCCC2)CCOc1ccccn1)Nc1ncnc2c(Cl)cccc12 [Compound 48, (S)-2-((8-chloroquinazolin-4-yl)amino)-4-((2-(pyridin-2-yloxy)ethyl) (4-(5,6,7,8-tetrahydro-1,8-naphthyridin-2-yl)butyl)amino) butanoic acid]	< 50
Cc1ccc(OCCN(CCCCc2ccc3c(n2)NCCC3)CC[C@H](Nc2nc(C)nc3cc(F)ccc23)C(=O)O)cn1 [Compound 56, (S)-2-((7-fluoro-2-methylquinazolin-4-yl)amino)-4-((2-((6-methylpyridin-3-yl)oxy)ethyl) (4-(5,6,7,8-tetrahydro-1,8-naphthyridin-2-yl)butyl)amino) butanoic acid]	< 50
COCCN(CCCCc1ccc2c(n1)NCCC2)CC[C@H](Nc1ncnc2c(Cl)cccc12)C(=O)O [Compound 38, (S)-2-((8-chloroquinazolin-4-yl)amino)-4-((2-methoxyethyl) (4-(5,6,7,8-tetrahydro-1,8-naphthyridin-2-yl)butyl)amino) butanoic acid]	< 50
COCCN(CCCCc1ccc2c(n1)NCCC2)CC[C@H](Nc1cc(C(F)(F)F)nc(C)n1)C(=O)O [Compound 22, (S)-4-((2-methoxyethyl) (4-(5,6,7,8-tetrahydro-1,8-naphthyridin-2-yl)butyl)amino)-2-((2-methyl-6-(trifluoromethyl)pyrimidin-4-yl)amino) butanoic acid]	< 50
COCCN(CCCCc1ccc2c(n1)NCCC2)CC[C@H](Nc1ncnc2cnccc12)C(=O)O [Compound 17, (S)-4-((2-methoxyethyl) (4-(5,6,7,8-tetrahydro-1,8-naphthyridin-2-yl)butyl)amino)-2-(pyrido[3,4-d]pyrimidin-4-ylamino) butanoic acid]	< 50
O=C(O)[C@H](CCN(CCCCc1ccc2c(n1)NCCC2)CCOc1ccccn1)Nc1ncnc2ccccc12 [Compound 49, (S)-4-((2-(pyridin-2-yloxy)ethyl) (4-(5,6,7,8-tetrahydro-1,8-naphthyridin-2-yl)butyl)amino)-2-(quinazolin-4-ylamino) butanoic acid]	< 50

Other lines, results leading:

IC50 [nM]	SMILES
< 50	O=C(O)[C@H](CCN(CCCCc1ccc2c(n1)NCCC2)CC1CCO1)Nc1ncnc2ccccc12 (stereo partly drawn) [Compound 129, (2S)-4-((oxetan-2-ylmethyl) (4-(5,6,7,8-tetrahydro-1,8-naphthyridin-2-yl)butyl)amino)-2-(quinazolin-4-ylamino) butanoic acid]
< 50	O=C(O)[C@H](CCN(CCCCc1ccc2c(n1)NCCC2)CCOc1ccccc1)Nc1ncc(C2CC2)cn1 [Compound 117, (S)-2-((5-cyclopropylpyrimidin-2-yl)amino)-4-((2-phenoxyethyl) (4-(5,6,7,8-tetrahydro-1,8-naphthyridin-2-yl)butyl)amino) butanoic acid]
> 1000	COC[C@@H](F)CN(CCCCc1ccc2c(n1)NCCC2)CC[C@H](Nc1cc(-c2ccccc2)ncn1)C(=O)O [Compound 128, (S)-4-(((S)-2-fluoro-3-methoxypropyl) (4-(5,6,7,8-tetrahydro-1,8-naphthyridin-2-yl)butyl)amino)-2-((6-phenylpyrimidin-4-yl)amino) butanoic acid]
< 50	CN(C)C(=O)CN(CCCCc1ccc2c(n1)NCCC2)CC[C@H](Nc1ncnc2c1cnn2C)C(=O)O [Compound 140, (S)-4-((2-(dimethylamino)-2-oxoethyl) (4-(5,6,7,8-tetrahydro-1,8-naphthyridin-2-yl)butyl)amino)-2-((1-methyl-1H-pyrazolo[3,4-d]pyrimidin-4-yl)amino) butanoic acid]
< 50	CO[C@H](C)CN(CCCCc1ccc2c(n1)NCCC2)CC[C@H](Nc1ncncc1-c1ccccc1)C(=O)O [Compound 81, (S)-4-(((R)-2-methoxypropyl) (4-(5,6,7,8-tetrahydro-1,8-naphthyridin-2-yl)butyl)amino)-2-((5-phenylpyrimidin-4-yl)amino) butanoic acid]
> 1000	CS(=O)(=O)CCN(CCCCc1ccc2c(n1)NCCC2)CC[C@H](Nc1cc(-n2cccn2)ncn1)C(=O)O [Compound 126, (S)-2-((6-(1H-pyrazol-1-yl)pyrimidin-4-yl)amino)-4-((2-(methylsulfonyl)ethyl) (4-(5,6,7,8-tetrahydro-1,8-naphthyridin-2-yl)butyl)amino) butanoic acid]
< 50	CO[C@H](C)CN(CCCCc1ccc2c(n1)NCCC2)CC[C@H](Nc1ncc(C(F)(F)F)cn1)C(=O)O [Compound 69, (S)-4-(((R)-2-methoxypropyl) (4-(5,6,7,8-tetrahydro-1,8-naphthyridin-2-yl)butyl)amino)-2-((5-(trifluoromethyl)pyrimidin-2-yl)amino) butanoic acid]
< 50	O=C(O)[C@H](CCN(CCCCc1ccc2c(n1)NCCC2)C1CC1)Nc1ncc(C(F)(F)F)cn1 [Compound 114, (S)-4-(cyclopropyl(4-(5,6,7,8-tetrahydro-1,8-naphthyridin-2-yl)butyl)amino)-2-((5-(trifluoromethyl)pyrimidin-2-yl)amino) butanoic acid]
< 50	CO[C@H](C)CN(CCCCc1ccc2c(n1)NCCC2)CC[C@H](Nc1ncc(F)cn1)C(=O)O [Compound 78, (S)-2-((5-fluoropyrimidin-2-yl)amino)-4-(((R)-2-methoxypropyl) (4-(5,6,7,8-tetrahydro-1,8-naphthyridin-2-yl)butyl)amino) butanoic acid]
< 50	CO[C@H](C)CN(CCCCc1ccc2c(n1)NCCC2)CC[C@H](Nc1ncnc2c1cnn2C)C(=O)O [Compound 74, (S)-4-(((R)-2-methoxypropyl) (4-(5,6,7,8-tetrahydro-1,8-naphthyridin-2-yl)butyl)amino)-2-((1-methyl-1H-pyrazolo[3,4-d]pyrimidin-4-yl)amino) butanoic acid]
> 1000	COC[C@@H](F)CN(CCCCc1ccc2c(n1)NCCC2)CC[C@H](Nc1cc(-n2cccn2)ncn1)C(=O)O [Compound 108, (S)-2-((6-(1H-pyrazol-1-yl)pyrimidin-4-yl)amino)-4-(((S)-2-fluoro-3-methoxypropyl) (4-(5,6,7,8-tetrahydro-1,8-naphthyridin-2-yl)butyl)amino) butanoic acid]
> 1000	O=C(O)[C@H](CCN(CCCCc1ccc2c(n1)NCCC2)CC(F)F)Nc1ncc(Br)cn1 [Compound 96, (S)-2-((5-bromopyrimidin-2-yl)amino)-4-((2,2-difluoroethyl) (4-(5,6,7,8-tetrahydro-1,8-naphthyridin-2-yl)butyl)amino) butanoic acid]
> 1000	CS(=O)(=O)CCN(CCCCc1ccc2c(n1)NCCC2)CC[C@H](Nc1ccnc(C(F)(F)F)n1)C(=O)O [Compound 104, (S)-4-((2-(methylsulfonyl)ethyl) (4-(5,6,7,8-tetrahydro-1,8-naphthyridin-2-yl)butyl)amino)-2-((2-(trifluoromethyl)pyrimidin-4-yl)amino) butanoic acid]
